Measurements taken from patent publication US20240287007A1, “N-(1,3,4-OXADIAZOL-2-YL)PHENYLCARBOXAMIDES AS HERBICIDES” (BAYER AKTIENGESELLSCHAFT, priority 2021, published 2024).

Tests used:
Assay type in all cases: in vivo
[1] = tested on: ABUTH (Abutylon threophrasti); test: Post-emergence herbicidal action against ABUTH; conditions: 80 g/ha, visual assessment after about 3 weeks
Description: (§1) Seeds of monocotyledonous and dicotyledonous weed and crop plants are laid out in sandy loam soil in wood-fiber pots, covered with soil and cultivated in a greenhouse under good growth conditions. 2 to 3 weeks after sowing, the trial plants are treated at the one-leaf stage. The compounds of the invention, formulated in the form of wettable powders (WP) or as emulsion concentrates (EC), are then sprayed onto the green parts of the plants as aqueous suspension or emulsion at a water application rate equating to 600 to 800 l/ha with addition of 0.2% wetting agent. After the test plants have been left to stand in the greenhouse under optimal growth conditions for about 3 weeks, the action of the preparations is assessed visually in comparison to untreated controls (herbicidal action in percent (%): 100% activity=the plants have died, 0% activity=like control plants).

[2] = tested on: AMARE (Amaranthus retroflexus); test: Post-emergence herbicidal action against AMARE; conditions: visual assessment after about 3 weeks
Description: as §1

[3] = tested on: DIGSA (Digitaria sanguinalis); test: Post-emergence herbicidal action against DIGSA; conditions: visual assessment after about 3 weeks
Description: as §1

[4] = tested on: MATIN (Matricaria inodora); test: Post-emergence herbicidal action against MATIN; conditions: visual assessment after about 3 weeks
Description: as §1

[5] = tested on: PHBPU (Pharbitis purpurea); test: Post-emergence herbicidal action against PHBPU; conditions: visual assessment after about 3 weeks
Description: as §1

[6] = tested on: SETVI (Setaria viridis); test: Post-emergence herbicidal action against SETVI; conditions: visual assessment after about 3 weeks
Description: as §1

[7] = tested on: VERPE (Veronica persica); test: Post-emergence herbicidal action against VERPE; conditions: 80 g/ha, visual assessment after about 3 weeks
Description: as §1

[8] = tested on: VIOTR (Viola tricolor); test: Post-emergence herbicidal action against VIOTR; conditions: visual assessment after about 3 weeks
Description: as §1

[9] = tested on: KCHSC (Kochia scoparia); test: Post-emergence herbicidal action against KCHSC; conditions: visual assessment after about 3 weeks
Description: as §1

[10] = tested on: ABUTH (Abutylon threophrasti); test: Pre-emergence herbicidal effect against ABUTH; conditions: scored visually after 3 weeks
Source text: (§2) Seeds of monocotyledonous and dicotyledonous weed plants and crop plants are laid out in sandy loam soil in wood-fiber pots and covered with soil. The compounds of the invention, formulated in the form of wettable powders (WP) or as emulsion concentrates (EC), are then applied to the surface of the covering soil as aqueous suspension or emulsion at a water application rate equating to 600 to 800 l/ha with addition of 0.2% wetting agent. After the treatment, the pots are placed in a greenhouse and kept under good growth conditions for the trial plants. The damage to the test plants is scored visually after a test period of 3 weeks by comparison with untreated controls (herbicidal activity in percent (%): 100% activity=the plants have died, 0% activity=like control plants).

[11] = tested on: AMARE (Amaranthus retroflexus); test: Pre-emergence herbicidal effect against AMARE; conditions: 80 g/ha, scored visually after 3 weeks
Source text: as §2

[12] = tested on: DIGSA (Digitaria sanguinalis); test: Pre-emergence herbicidal effect against DIGSA; conditions: scored visually after 3 weeks
Source text: as §2

[13] = tested on: ECHCG (Echinochloa crus-galli); test: Pre-emergence herbicidal effect against ECHCG; conditions: 80 g/ha, scored visually after 3 weeks
Source text: as §2

[14] = tested on: SETVI (Setaria viridis); test: Pre-emergence herbicidal effect against SETVI; conditions: 80 g/ha, scored visually after 3 weeks
Source text: as §2

[15] = tested on: VIOTR (Viola tricolor); test: Pre-emergence herbicidal effect against VIOTR; conditions: scored visually after 3 weeks
Source text: as §2

[16] = tested on: KCHSC (Kochia scoparia); test: Pre-emergence herbicidal effect against KCHSC; conditions: scored visually after 3 weeks
Source text: as §2

Question: Which “Post-emergence effect at 80 g/ha against ABUTH in %” value [1] does the source give for CSc1c(OC(F)(F)F)ccc(C(=O)Nc2nnco2)c1Cl [Example 1-31, 2-chloro-3-(methylsulfanyl)-N-(1,3,4-oxadiazol-2-yl)-4-(trifluoromethoxy)benzamide] here?
Answer: 90%

Question: What about the “Post-emergence effect at 20 g/ha against AMARE in %” value ([2]; 20 g/ha) of the same compound?
Answer: 100%

Question: What about the “Post-emergence effect at 80 g/ha against AMARE in %” value ([2]; 80 g/ha) of the same compound?
Answer: 100%

Question: And the “Post-emergence effect at 20 g/ha against DIGSA in %” value ([3]; 20 g/ha)?
Answer: 90%

Question: What about the “Post-emergence effect at 80 g/ha against DIGSA in %” value ([3]; 80 g/ha) of the same compound?
Answer: 90%

Question: And the “Post-emergence effect at 20 g/ha against MATIN in %” value ([4]; 20 g/ha)?
Answer: 80%

Question: What about the “Post-emergence effect at 80 g/ha against MATIN in %” value ([4]; 80 g/ha) of the same compound?
Answer: 90%

Question: What about the “Post-emergence effect at 20 g/ha against PHBPU in %” value ([5]; 20 g/ha) of the same compound?
Answer: 90%

Question: And the “Post-emergence effect at 80 g/ha against PHBPU in %” value ([5]; 80 g/ha)?
Answer: 90%

Question: And the “Post-emergence effect at 20 g/ha against SETVI in %” value ([6]; 20 g/ha)?
Answer: 80%

Question: What about the “Post-emergence effect at 80 g/ha against SETVI in %” value ([6]; 80 g/ha) of the same compound?
Answer: 90%

Question: What about the “Post-emergence effect at 80 g/ha against VERPE in %” value [7] of the same compound?
Answer: 80%

Question: And the “Post-emergence effect at 20 g/ha against VIOTR in %” value ([8]; 20 g/ha)?
Answer: 90%

Question: What about the “Post-emergence effect at 80 g/ha against VIOTR in %” value ([8]; 80 g/ha) of the same compound?
Answer: 100%

Question: What about the “Post-emergence effect at 20 g/ha against KCHSC in %” value ([9]; 20 g/ha) of the same compound?
Answer: 100%

Question: And the “Post-emergence effect at 80 g/ha against KCHSC in %” value ([9]; 80 g/ha)?
Answer: 100%

Question: What about the “Pre-emergence effect at 20 g/ha against ABUTH in %” value ([10]; 20 g/ha) of the same compound?
Answer: 90%

Question: What about the “Pre-emergence effect at 80 g/ha against ABUTH in %” value ([10]; 80 g/ha) of the same compound?
Answer: 100%

Question: What about the “Pre-emergence effect at 80 g/ha against AMARE in %” value [11] of the same compound?
Answer: 100%

Question: And the “Pre-emergence effect at 20 g/ha against DIGSA in %” value ([12]; 20 g/ha)?
Answer: 90%

Question: And the “Pre-emergence effect at 80 g/ha against DIGSA in %” value ([12]; 80 g/ha)?
Answer: 100%

Question: And the “Pre-emergence effect at 80 g/ha against ECHCG in %” value [13]?
Answer: 100%

Question: And the “Pre-emergence effect at 80 g/ha against SETVI in %” value [14]?
Answer: 100%

Question: What about the “Pre-emergence effect at 20 g/ha against VIOTR in %” value ([15]; 20 g/ha) of the same compound?
Answer: 90%

Question: What about the “Pre-emergence effect at 80 g/ha against VIOTR in %” value ([15]; 80 g/ha) of the same compound?
Answer: 90%

Question: And the “Pre-emergence effect at 20 g/ha against KCHSC in %” value ([16]; 20 g/ha)?
Answer: 90%

Question: What about the “Pre-emergence effect at 80 g/ha against KCHSC in %” value ([16]; 80 g/ha) of the same compound?
Answer: 100%
